In PubChem BioAssay AID2060508 (Molecular Pharmacology Branch, DTP, NCI, 2025):

What follows are compounds tested on 454973-116-R2-J3-PDC spheroids, viability, % test/control (assay: Anticancer human tumor 454973-116-R2-J3-PDC patient-derived pancreatic carcinoma cell line growth inhibition [GQUAD]). Conditions: curve of first compound; second compound 10 µM; spheroids with HUVEC and MSC.
Outline: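 Tumor cells were grown as complex spheroids with HUVEC endothelial cells and mesenchymal stem cells as stroma. G-quadruplex stabilizers were combined with targeted agents over half-log dilutions from near the clinical Cmax, or from 10 microM.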
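Note: spheroids exposed to compounds for seven days.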
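Throughout, for viability, T/C: 100% = DMSO vehicle control viability.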

Row | SMILES | IC50 [nM]
1 | CCc1c2c(nc3ccc(O)cc13)-c1cc3c(c(=O)n1C2)COC(=O)[C@]3(O)CC + Cc1[nH]c2ccc(F)cc2c1-c1nc2c3cccnc3c3ncccc3c2[nH]1 | 1.54
2 | COc1cc(C2c3cc4c(cc3C(OC3OC5COC(C)OC5C(O)C3O)C3COC(=O)C23)OCO4)cc(OC)c1O (stereo unspecified) + Cc1[nH]c2ccc(F)cc2c1-c1nc2c3cccnc3c3ncccc3c2[nH]1 | 1170
3 | COc1cccc2c1C(=O)c1c(O)c3c(c(O)c1C2=O)CC(O)(C(=O)CO)CC3OC1CC(N)C(O)C(C)O1 (stereo unspecified) + Cc1[nH]c2ccc(F)cc2c1-c1nc2c3cccnc3c3ncccc3c2[nH]1 | 158
4 | Cc1cccc(N(C)C(=O)C2C(O)CCN2c2nc(C)cc(C(F)(F)F)c2C#N)c1 (stereo unspecified) + Cc1[nH]c2ccc(F)cc2c1-c1nc2c3cccnc3c3ncccc3c2[nH]1 | > 10000

Same assay, conditions: second compound 0.0316 µM; first compound 0.000999 µM; stronger effect = lower value; spheroids with HUVEC and MSC

Row | SMILES | viability, T/C [%]
5 | CCc1c2c(nc3ccc(O)cc13)-c1cc3c(c(=O)n1C2)COC(=O)[C@]3(O)CC + Cc1[nH]c2ccc(F)cc2c1-c1nc2c3cccnc3c3ncccc3c2[nH]1 | 62.5

Same assay, conditions: second compound 0.0316 µM; first compound 0.00316 µM; stronger effect = lower value; spheroids with HUVEC and MSC

Row | SMILES | viability, T/C [%]
6 | CCc1c2c(nc3ccc(O)cc13)-c1cc3c(c(=O)n1C2)COC(=O)[C@]3(O)CC + Cc1[nH]c2ccc(F)cc2c1-c1nc2c3cccnc3c3ncccc3c2[nH]1 | 26.2

Same assay, conditions: second compound 0.0316 µM; first compound 0.00999 µM; stronger effect = lower value; spheroids with HUVEC and MSC

Row | SMILES | viability, T/C [%]
7 | CCc1c2c(nc3ccc(O)cc13)-c1cc3c(c(=O)n1C2)COC(=O)[C@]3(O)CC + Cc1[nH]c2ccc(F)cc2c1-c1nc2c3cccnc3c3ncccc3c2[nH]1 | 21.5

Same assay, conditions: second compound 0.0316 µM; first compound 0.0316 µM; stronger effect = lower value; spheroids with HUVEC and MSC

Row | SMILES | viability, T/C [%]
8 | C=CC(=O)N1CCN(c2nc(=O)n(-c3c(C)ccnc3C(C)C)c3nc(-c4c(O)cccc4F)c(F)cc23)C(C)C1 (stereo unspecified) + Cc1[nH]c2ccc(F)cc2c1-c1nc2c3cccnc3c3ncccc3c2[nH]1 | 110
9 | CCc1c2c(nc3ccc(O)cc13)-c1cc3c(c(=O)n1C2)COC(=O)[C@]3(O)CC + Cc1[nH]c2ccc(F)cc2c1-c1nc2c3cccnc3c3ncccc3c2[nH]1 | 14.5
10 | COc1cc(C2c3cc4c(cc3C(OC3OC5COC(C)OC5C(O)C3O)C3COC(=O)C23)OCO4)cc(OC)c1O (stereo unspecified) + Cc1[nH]c2ccc(F)cc2c1-c1nc2c3cccnc3c3ncccc3c2[nH]1 | 112
11 | COc1cccc2c1C(=O)c1c(O)c3c(c(O)c1C2=O)CC(O)(C(=O)CO)CC3OC1CC(N)C(O)C(C)O1 (stereo unspecified) + Cc1[nH]c2ccc(F)cc2c1-c1nc2c3cccnc3c3ncccc3c2[nH]1 | 106
12 | Cc1cccc(N(C)C(=O)C2C(O)CCN2c2nc(C)cc(C(F)(F)F)c2C#N)c1 (stereo unspecified) + Cc1[nH]c2ccc(F)cc2c1-c1nc2c3cccnc3c3ncccc3c2[nH]1 | 102

Same assay, conditions: second compound 0.0316 µM; first compound 0.0999 µM; stronger effect = lower value; spheroids with HUVEC and MSC

Row | SMILES | viability, T/C [%]
13 | CCc1c2c(nc3ccc(O)cc13)-c1cc3c(c(=O)n1C2)COC(=O)[C@]3(O)CC + Cc1[nH]c2ccc(F)cc2c1-c1nc2c3cccnc3c3ncccc3c2[nH]1 | 7.97

Same assay, conditions: second compound 0.0316 µM; first compound 0.1 µM; stronger effect = lower value; spheroids with HUVEC and MSC

Row | SMILES | viability, T/C [%]
14 | C=CC(=O)N1CCN(c2nc(=O)n(-c3c(C)ccnc3C(C)C)c3nc(-c4c(O)cccc4F)c(F)cc23)C(C)C1 (stereo unspecified) + Cc1[nH]c2ccc(F)cc2c1-c1nc2c3cccnc3c3ncccc3c2[nH]1 | 107
15 | COc1cc(C2c3cc4c(cc3C(OC3OC5COC(C)OC5C(O)C3O)C3COC(=O)C23)OCO4)cc(OC)c1O (stereo unspecified) + Cc1[nH]c2ccc(F)cc2c1-c1nc2c3cccnc3c3ncccc3c2[nH]1 | 92.4
16 | COc1cccc2c1C(=O)c1c(O)c3c(c(O)c1C2=O)CC(O)(C(=O)CO)CC3OC1CC(N)C(O)C(C)O1 (stereo unspecified) + Cc1[nH]c2ccc(F)cc2c1-c1nc2c3cccnc3c3ncccc3c2[nH]1 | 63.1
17 | Cc1cccc(N(C)C(=O)C2C(O)CCN2c2nc(C)cc(C(F)(F)F)c2C#N)c1 (stereo unspecified) + Cc1[nH]c2ccc(F)cc2c1-c1nc2c3cccnc3c3ncccc3c2[nH]1 | 94.9

Same assay, conditions: second compound 0.0316 µM; first compound 0.316 µM; stronger effect = lower value; spheroids with HUVEC and MSC

Row | SMILES | viability, T/C [%]
18 | C=CC(=O)N1CCN(c2nc(=O)n(-c3c(C)ccnc3C(C)C)c3nc(-c4c(O)cccc4F)c(F)cc23)C(C)C1 (stereo unspecified) + Cc1[nH]c2ccc(F)cc2c1-c1nc2c3cccnc3c3ncccc3c2[nH]1 | 115
19 | CCc1c2c(nc3ccc(O)cc13)-c1cc3c(c(=O)n1C2)COC(=O)[C@]3(O)CC + Cc1[nH]c2ccc(F)cc2c1-c1nc2c3cccnc3c3ncccc3c2[nH]1 | 3.8
20 | COc1cc(C2c3cc4c(cc3C(OC3OC5COC(C)OC5C(O)C3O)C3COC(=O)C23)OCO4)cc(OC)c1O (stereo unspecified) + Cc1[nH]c2ccc(F)cc2c1-c1nc2c3cccnc3c3ncccc3c2[nH]1 | 99.7
21 | COc1cccc2c1C(=O)c1c(O)c3c(c(O)c1C2=O)CC(O)(C(=O)CO)CC3OC1CC(N)C(O)C(C)O1 (stereo unspecified) + Cc1[nH]c2ccc(F)cc2c1-c1nc2c3cccnc3c3ncccc3c2[nH]1 | 30.4
22 | Cc1cccc(N(C)C(=O)C2C(O)CCN2c2nc(C)cc(C(F)(F)F)c2C#N)c1 (stereo unspecified) + Cc1[nH]c2ccc(F)cc2c1-c1nc2c3cccnc3c3ncccc3c2[nH]1 | 104

Same assay, conditions: second compound 0.0316 µM; first compound 1 µM; stronger effect = lower value; spheroids with HUVEC and MSC

Row | SMILES | viability, T/C [%]
23 | C=CC(=O)N1CCN(c2nc(=O)n(-c3c(C)ccnc3C(C)C)c3nc(-c4c(O)cccc4F)c(F)cc23)C(C)C1 (stereo unspecified) + Cc1[nH]c2ccc(F)cc2c1-c1nc2c3cccnc3c3ncccc3c2[nH]1 | 109
24 | COc1cc(C2c3cc4c(cc3C(OC3OC5COC(C)OC5C(O)C3O)C3COC(=O)C23)OCO4)cc(OC)c1O (stereo unspecified) + Cc1[nH]c2ccc(F)cc2c1-c1nc2c3cccnc3c3ncccc3c2[nH]1 | 52
25 | COc1cccc2c1C(=O)c1c(O)c3c(c(O)c1C2=O)CC(O)(C(=O)CO)CC3OC1CC(N)C(O)C(C)O1 (stereo unspecified) + Cc1[nH]c2ccc(F)cc2c1-c1nc2c3cccnc3c3ncccc3c2[nH]1 | 22.6
26 | Cc1cccc(N(C)C(=O)C2C(O)CCN2c2nc(C)cc(C(F)(F)F)c2C#N)c1 (stereo unspecified) + Cc1[nH]c2ccc(F)cc2c1-c1nc2c3cccnc3c3ncccc3c2[nH]1 | 102
